Laboratory results published in US20100003217A1, “Compounds and Pharmaceutical Compositions for the Treatment of Viral Infections” (priority 2008, published 2010).
“And” between values parts separate entries of the source, which are not always exact repeats. Equal entries are not always repeated. Each block holds one molecule with its values, some of them ahead of it.

Columns and labels:
[1] = tested on: monkey primary hepatocytes; assay: Metabolic disposition of [^14C]-Compound 1 and [^14C]-2′-C-methyl guanosine in monkey primary hepatocytes (incubation medium, cellular extracts, nucleotide levels); assay type: in vitro ADME, Cynomolgus monkey; conditions: for Major metabolites observed in cellular extracts (% of total radioactivity): 10 μM [^14C]-2′-C-methyl guanosine
Method: (§1) Primary hepatocytes: Freshly isolated cells from animal and human liver were obtained in suspension on ice. Cells were pelleted by centrifugation at 70-75×g (rat) or 95-90×g (monkey and human) and resuspended at 0.8 million cells per mL of platting medium (William's E supplemented with 5% FBS, 0.5% penicillin-streptomycin, 1% L-glutamine, 4 μg/mL insulin and 1 μM dexamethasone). Multi-well collagen I-coated plates (rat tail collagen type I; 12- or 6-well) were then seeded by addition of 1 mL (12-well; 0.8 million cells/well) or 2 mL (6-well; 1.6 million cells/well) of cell suspension. The plates were gently shaken to evenly distribute the cells and placed in an incubator at 37° C. for approximately 4 to 6 hours to allow cells to attach. Once cells were attached, the platting medium was removed and replaced with hepatocyte culture medium (William's E supplemented with penicillin-streptomycin, 1% L-glutamine, 1% insulin-transferrin-selenium and 0.1 μM dexamethasone). Cells were left overnight in an incubator at 37° C. to acclimatize to culture and the medium.
(§2) Hepatocyte incubations with radiolabeled Compound 1 and 2′-C-methyl guanosine, both labeled in the C-8 position of the guanine moiety, were conducted at a final volume of 2.0 mL hepatocyte culture medium/well ([…]). Culture medium from overnight incubation of cells was removed and replaced with fresh medium, pre-warmed to 37° C., containing 1 or 10 μM [^14C]-Compound 1 ([…]) or [^14C]-2′-C-methyl guanosine (127 DPM/μmol) from a stock solution in DMSO (final DMSO concentration was 0.1%) or 50% ethanol (final ethanol concentration was 0.2%). After 1, 4, 8 and 24 hours, 0.5-1.0 mL of incubation medium was removed and stored at −20° C. until analysis (described below). The remaining medium was discarded and cell monolayers were carefully washed two times with ice-cold PBS. Following the last wash, all PBS was carefully removed and 1.0 mL of extraction solution (ice-cold 70% methanol) added. Cells were scrapped off and suspended in the extraction solution, transferred to 2 mL polypropylene microfuge tubes and intracellular contents extracted overnight at −20° C.
(§3) Preliminary identification of putative metabolites was conducted by comparing the retention time of observed metabolites in incubation medium and cellular extracts with retention times obtained with chemically synthesized standards using the chromatography conditions described below. Further identification of 2′-C-methyl guanosine nucleotides (mono-, di- and triphosphate) was carried out by incubating cellular extract samples with alkaline phosphatase (10 units for 60 min at 37° C.) and comparing the HPLC retention times of the resulting nucleosides with that of authentic 2′-C-methyl guanosine.
(§4) Cellular extracts were prepared by centrifugation at 16,000 RCF using an Eppendorf microcentrifuge (Eppendorf, Model 5415D) for 10 min to remove cellular debris. An aliquot of 5-10 μL of the supernatant was added to 5 mL of EcoLite™ (MP, Irvine, Calif.) liquid scintillation cocktail and radioactivity measured by liquid scintillation counting (LSC) using a Beckman Coulter LS6500 multipurpose liquid scintillation counter (Beckman Instruments, Fullerton, Calif.). The remaining sample was then dried using a Labconco refrigerated centrivap concentrator (Labconco, Kansas City, Mo.). Dry extracts were reconstituted in 120 μL of HPLC-grade water and centrifuged at 16,000 RCF using an Eppendorf microcentrifuge for 10 min. Prior to HPLC analysis (described below), radioactivity of the concentrated extracts was measured by LSC using 5 μL aliquots. Extraction recovery was then determined by comparing total radioactivity in extracts before and after drying. The remaining extract was then analyzed by HPLC with online radioactivity detection using a Flow Scintillation Analyzer Radiomatic™ 515TR. Radioactivity in the separated components was quantified by integrating the peaks using Flo-One™ Software (Perkin Elmer Life Sciences). […]

[2] = tested on: rat primary hepatocytes; assay: Metabolic disposition of [^14C]-Compound 1 and [^14C]-2′-C-methyl guanosine in rat primary hepatocytes (incubation medium, cellular extracts, nucleotide levels); assay type: in vitro ADME, Sprague Dawley rat
Method: as §1, §2, §3, §4

[3] = monkey hepatocytes (Cy230, Cy234), 10 μM [^14C]-Compound 1, 1 h
[4] = monkey hepatocytes (Cy230, Cy234), 10 μM [^14C]-Compound 1, 8 h
[5] = monkey hepatocytes (Cy230, Cy234), 10 μM [^14C]-Compound 1, 24 h
[6] = monkey hepatocytes (Cy234), 10 μM [^14C]-Compound 1, 4 h
[7] = monkey hepatocytes (lot Cy234), 10 μM [^14C]-Compound 1, 4 h
[8] = monkey hepatocytes (lots Cy230, Cy234), 10 μM [^14C]-Compound 1, 0 h
[9] = monkey hepatocytes (lots Cy230, Cy234), 10 μM [^14C]-Compound 1, 8 h
[10] = monkey hepatocytes (lots Cy230, Cy234), 10 μM [^14C]-Compound 1, 24 h
[11] = rat hepatocytes (Rs448, Rs458), 10 μM [^14C]-Compound 1, 8 h
[12] = rat hepatocytes (Rs448, Rs458), 10 μM [^14C]-Compound 1, 24 h
[13] = rat hepatocytes (Rs458), 1 μM [^14C]-Compound 1, 0 h
[14] = rat hepatocytes (Rs458), 1 μM [^14C]-Compound 1, 1 h
[15] = rat hepatocytes (Rs458), 1 μM [^14C]-Compound 1, 8 h
[16] = rat hepatocytes (Rs458), 1 μM [^14C]-Compound 1, 24 h
[17] = rat hepatocytes (lots Rs448, Rs458), 10 μM [^14C]-Compound 1, 0 h
[18] = rat hepatocytes (lots Rs448, Rs458), 10 μM [^14C]-Compound 1, 1 h
[19] = rat hepatocytes (lots Rs448, Rs458), 10 μM [^14C]-Compound 1, 4 h
[20] = rat hepatocytes (lots Rs448, Rs458), 10 μM [^14C]-Compound 1, 8 h
[21] = rat hepatocytes (lots Rs448, Rs458), 10 μM [^14C]-Compound 1, 24 h

metabolites observed in cellular extracts (% of total radioactivity) [1, 3]: 1.68% and 3.04%
metabolites observed in cellular extracts (% of total radioactivity) [1, 4]: 0.95% and 2.06%
metabolites observed in cellular extracts (% of total radioactivity) [1, 5]: 2.31% and 1.25%
metabolites observed in cellular extracts (% of total radioactivity) [1, 6]: 1.35%
metabolites observed in medium (% of total radioactivity) [1, 7]: 6.8%
metabolites observed in medium (% of total radioactivity) [1, 8]: BLD^c and BLD
metabolites observed in medium (% of total radioactivity) [1, 9]: 10.4% and 14.8%
metabolites observed in medium (% of total radioactivity) [1, 10]: 48.8% and 35.6%
Major metabolites observed in cellular extracts (% of total radioactivity) ([1]; monkey hepatocytes Cy230, 1 h): 96.4 % of total radioactivity
Major metabolites observed in cellular extracts (% of total radioactivity) ([1]; monkey hepatocytes Cy230, 8 h): 77.3 % of total radioactivity
Major metabolites observed in cellular extracts (% of total radioactivity) ([1]; monkey hepatocytes Cy230, 24 h): 65.0 % of total radioactivity
Major metabolites observed in cellular extracts (% of total radioactivity) ([1]; monkey hepatocytes Cy234, 1 h): 86.9 % of total radioactivity
Major metabolites observed in cellular extracts (% of total radioactivity) ([1]; monkey hepatocytes Cy234, 4 h): 57.9 % of total radioactivity
Major metabolites observed in cellular extracts (% of total radioactivity) ([1]; monkey hepatocytes Cy234, 8 h): 45.8 % of total radioactivity
Major metabolites observed in cellular extracts (% of total radioactivity) ([1]; monkey hepatocytes Cy234, 24 h): 29.0 % of total radioactivity
metabolites observed in cellular extracts (% of total radioactivity) ([2]; rat hepatocytes (Rs448, Rs458), 10 μM [^14C]-Compound 1, 1 h): 1.84% and 1.75%
metabolites observed in cellular extracts (% of total radioactivity) ([2]; rat hepatocytes (Rs448, Rs458), 10 μM [^14C]-Compound 1, 4 h): 5.04% and 3.78%
metabolites observed in cellular extracts (% of total radioactivity) [2, 11]: 8.77% and 4.95%
metabolites observed in cellular extracts (% of total radioactivity) [2, 12]: 14.7% and 16.9%
metabolites observed in medium (% of total radioactivity) [2, 13]: BLD
metabolites observed in cellular extracts (% of total radioactivity) [2, 14]: 1.01%
metabolites observed in medium (% of total radioactivity) [2, 14]: BLD
metabolites observed in cellular extracts (% of total radioactivity) [2, 15]: 5.58%
metabolites observed in medium (% of total radioactivity) [2, 15]: 29.4%
metabolites observed in cellular extracts (% of total radioactivity) [2, 16]: 13.1%
metabolites observed in medium (% of total radioactivity) [2, 16]: 58% and 58.3%
metabolites observed in medium (% of total radioactivity) [2, 17]: BLD^b and BLD
metabolites observed in medium (% of total radioactivity) [2, 18]: 0.8% and 0.5%
metabolites observed in medium (% of total radioactivity) [2, 19]: 17.5% and 10.1% and 17.0% and 10.0%
metabolites observed in medium (% of total radioactivity) [2, 20]: 41.5% and 23.4% and 41.0% and 23.0%
Major metabolites observed in cellular extracts (% of total radioactivity) ([2]; rat hepatocytes Rs448, 10 μM [^14C]-2′-C-methyl guanosine, 1 h): 93.6 % of total radioactivity
Major metabolites observed in cellular extracts (% of total radioactivity) ([2]; rat hepatocytes Rs448, 10 μM [^14C]-2′-C-methyl guanosine, 4 h): 78.6 % of total radioactivity
Major metabolites observed in cellular extracts (% of total radioactivity) ([2]; rat hepatocytes Rs448, 10 μM [^14C]-2′-C-methyl guanosine, 8 h): 69.2 % of total radioactivity
Major metabolites observed in cellular extracts (% of total radioactivity) ([2]; rat hepatocytes Rs448, 10 μM [^14C]-2′-C-methyl guanosine, 24 h): 51.5 % of total radioactivity
Major metabolites observed in cellular extracts (% of total radioactivity) ([2]; rat hepatocytes Rs458, 1 μM [^14C]-2′-C-methyl guanosine, 1 h): 93.4 % of total radioactivity
Major metabolites observed in cellular extracts (% of total radioactivity) ([2]; rat hepatocytes Rs458, 1 μM [^14C]-2′-C-methyl guanosine, 8 h): 68.7 % of total radioactivity
Major metabolites observed in cellular extracts (% of total radioactivity) ([2]; rat hepatocytes Rs458, 1 μM [^14C]-2′-C-methyl guanosine, 24 h): 49.2 % of total radioactivity
Major metabolites observed in cellular extracts (% of total radioactivity) ([2]; rat hepatocytes Rs458, 10 μM [^14C]-2′-C-methyl guanosine, 1 h): 94.5 % of total radioactivity
Major metabolites observed in cellular extracts (% of total radioactivity) ([2]; rat hepatocytes Rs458, 10 μM [^14C]-2′-C-methyl guanosine, 4 h): 79.8 % of total radioactivity
Major metabolites observed in cellular extracts (% of total radioactivity) ([2]; rat hepatocytes Rs458, 10 μM [^14C]-2′-C-methyl guanosine, 8 h): 67.2 % of total radioactivity
Major metabolites observed in cellular extracts (% of total radioactivity) ([2]; rat hepatocytes Rs458, 10 μM [^14C]-2′-C-methyl guanosine, 24 h): 47.1 % of total radioactivity
SMILES: C[C@@]1(O)[C@H](O)[C@@H](CO)O[C@H]1n1cnc2c(=O)[nH]c(N)nc21 [2′-C-methyl guanosine, 9-(2-C-methyl-β-D-ribofuranosyl)guanine, reference compound]
metabolites observed in medium (% of total radioactivity) [2, 21]: 67% and 68.5% and 65.3% and 69.0% and 65.0%

metabolites observed in cellular extracts (% of total radioactivity) [1, 3]: 3.20% and 7.96%
metabolites observed in cellular extracts (% of total radioactivity) [1, 4]: BLD^c and BLD
metabolites observed in cellular extracts (% of total radioactivity) [1, 5]: BLD
metabolites observed in cellular extracts (% of total radioactivity) [1, 6]: 1.25%
metabolites observed in medium (% of total radioactivity) [1, 7]: 1.1%
metabolites observed in medium (% of total radioactivity) [1, 8]: 1.0% and 6.2%
metabolites observed in medium (% of total radioactivity) ([1]; monkey hepatocytes (lots Cy230, Cy234), 10 μM [^14C]-Compound 1, 1 h): 1.9% and 0.6%
metabolites observed in medium (% of total radioactivity) [1, 9]: 8.5% and 1.8%
metabolites observed in medium (% of total radioactivity) [1, 10]: 7.0% and 8.2%
metabolites observed in cellular extracts (% of total radioactivity) ([2]; rat hepatocytes (Rs448, Rs458), 10 μM [^14C]-Compound 1, 1 h, listed as Compd 2): 1.92% and 3.48%
metabolites observed in cellular extracts (% of total radioactivity) [2, 11]: BLD
metabolites observed in cellular extracts (% of total radioactivity) [2, 12]: BLD
metabolites observed in medium (% of total radioactivity) [2, 13]: 1.05%
metabolites observed in cellular extracts (% of total radioactivity) [2, 14]: 5.83%
metabolites observed in medium (% of total radioactivity) [2, 14]: 3.02%
metabolites observed in cellular extracts (% of total radioactivity) [2, 15]: BLD
metabolites observed in medium (% of total radioactivity) [2, 15]: 9.52%
metabolites observed in cellular extracts (% of total radioactivity) [2, 16]: BLD
metabolites observed in medium (% of total radioactivity) [2, 16]: 7% and 7.43%
metabolites observed in medium (% of total radioactivity) [2, 17]: 2.2% and 1.5%
metabolites observed in medium (% of total radioactivity) [2, 18]: 1.9% and 1.5%
metabolites observed in medium (% of total radioactivity) [2, 19]: 5.3% and 5.1%
metabolites observed in medium (% of total radioactivity) [2, 20]: 5.7% and 6.8%
metabolites observed in medium (% of total radioactivity) [2, 21]: 3.7% and 4.6%
SMILES: C[C@@]1(O)[C@H](O)[C@@H](COP(=O)(O)NCc2ccccc2)O[C@H]1n1cnc2c(=O)[nH]c(N)nc21 [Compound 2, [(2R)-2-methyl-β-D-ribofuranosyl]guanine-N-benzylaminyl-5′-monophosphate]
